The source of these data is patent US6593365B1, “Diflunisal esters and related compounds” (The University of Queensland, priority 1997, dated 2003).

Marks after values point to notes of the source that are not given here.

One data set deals with superoxide generated from xanthine oxidase plus xanthine reaction. Briefly: Xanthine oxidase plus xanthine-induced chemiluminescence. In kind it is biochemical. Also noted: dose or concentration left out as unconfirmed. The following applies: X: CL induced by xanthine oxidase plus xanthine. The procedure: To clarify the role of aspirin analogues and diflunisal esters in free radicals scavenging, the Fenton's reagent was replaced by an artificial superoxide generating system in the CL inhibition studies. This cell-free system consisted of 100 μg/mL of xanthine oxidase (Sigma) plus 0.5 μM xanthine (Sigma) (Rosen and Klebanoff, 1976, J Clin Invest 58 50-60; Cheson et al., 1976, J Clin Invest 58 789-796).
(§1) CL measurements were always done in triplicate and Student's t-test used to assess the statistical significance of the difference between measurements.
Consider “O-acetylsalicylic acid [Compound C2SA, reference compound]”, for which the “CL inhibition (%)” value was 0.4 ± 0.1%.
Still for that read-out and setting: under `CCCCCC(=O)Oc1ccc(-c2ccc(F)cc2F)cc1C(=O)O` [Compound C6D, n-hexanoyldiflunisal] stands 0.7 ± 0.1%; under `CCCCC(=O)Oc1ccccc1C(=O)O` [Compound C5SA, n-pentanoylsalicylic acid], 0.3 ± 0.0%.

System in a further data set: not listed separately
The experiment in a line: Maximum solubility in 2% BSA Krebs-Henseleit buffer (pH 7.4). Type of data set: physicochemical. The following applies: 25 1° C. The source says: The intrinsic solubility of diflunisal esters is extremely low (TABLE 2). The more lipophilic the analogue, the higher the solubility of solute under these conditions.
Consider `CCCCCC(=O)Oc1ccc(-c2ccc(F)cc2F)cc1C(=O)O` [Compound C6D, n-hexanoyldiflunisal], for which the Maximum solubility is recorded as 44.77 mM.

The data set is the same for the next values; noted with them: 25 1° C., mean standard deviation (n=3).
In turn, `CCCCCC(=O)Oc1ccc(-c2ccc(F)cc2F)cc1C(=O)O` [Compound C6D, n-hexanoyldiflunisal] had a Maximum solubility of 15.58 ± 0.3 mg/mL.

Another data set concerns in-situ perfused rat liver. The experiment in a line: In-situ rat liver perfusions, hepatic availability (Example 2). In kind it is in vitro ADME. The following applies: 2% BSA in Krebs-Henseleit buffer as perfusate, 30 mL/min, bolus. As to the method:
The hepatic availability (Fhepatic) for the O-acyl esters of the salicylic acid and diflunisal was determined using a once through in-situ perfused rat liver preparation (Mellick et al, Unpublished Results).
Protein-free Krebs-Henseleit buffer was perfused at 30 mL/min for aspiring analogues and 2% BSA in Krebs-Henseleit buffer for diflunisal esters (since the solubilities of these latter compounds in protein-free media were very low (Hung et al, supra), 2% BSA were used to increase their solubilities). Briefly, 50 μL aliquots of a saturated solution of the particular O-acyl salicylic acid or diflunisal in Krebs-Henseleit buffer (or with 2% BSA) was injected into the liver with perfusate outflow samples collected via a fraction collector over three minutes. Aliquots (100 μL) from the outflow samples were assayed by HPLC to determine the residual concentration of presented ester and the quantity of phenolic metabolite (salicylic acid or diflunisal) issuing from the perfused liver. The HPLC assay was a modification of the method used by Mellick & Roberts 1996 (Mellick et al, 1996, unpublished results).
The hepatic availability (F) was determined from the outflow concentration versus time profiles for the esters using equation 1, with the assistance of the Moments Calculator 2.2 program for Macintosh computer developed by Robert Purves.
where Q is the perfusate flow rate and D is the dose of aspirin analogues or diflunisal esters administered. The area under the concentration-time curve (AUC) was estimated by the trapezoidal rule integration with appropriate modification for tail (Mellick et al, supra).
`CCCCCC(=O)Oc1ccc(-c2ccc(F)cc2F)cc1C(=O)O` [Compound C6D, n-hexanoyldiflunisal]: the “Hepatic availability (F)” value is 0.38.

The same data set, now with this note: protein-free Krebs-Henseleit buffer as perfusate, 30 mL/min, bolus.
With “O-acetylsalicylic acid [Compound C2SA, reference compound]”, the “Hepatic availability (F)” value is 0.85.
Take `CCCCC(=O)Oc1ccccc1C(=O)O` [Compound C5SA, n-pentanoylsalicylic acid]: the “Hepatic availability (F)” value came to 0.26.

In a further data set the test system is human platelet rich plasma. Briefly: Platelet aggregation induced by arachidonic acid. The settings on record: preincubation 3 minutes; compound 600 µM, 37° C.; arachidonic acid 200 µM. In kind it is cell-based. The procedure:
Platelet aggregation studies were carried out using a single channel Lumiaggregometer (Chrono-Log Company, Haverton, Pa.) at 37° C. using human platelet-rich and platelet-poor plasma. Platelet-rich plasma (PRP) with a platelet concentration of […] (measured with a Coulter counter) was prepared by centrifuging 3.8% citrated […] (1:9) at 1,500 rpm using a (Beckman) benchtop centrifuge at room temperature for 15 minutes. Platelet-poor plasma (PPP) was prepared by further centrifuging residual blood from platelet-rich plasma at 3,000 rpm for 30 minutes. Platelet-poor plasma was also confirmed b y Coulter counting for platelet content.
Platelet aggregation studies were preceded by pipetting 0.4 mL platelet-rich plasma into a stirred aggregometer tube and calibrate to 90% of recorder. Platelet-poor plasma was set to calibrate at 10% of recorder. Platelet aggregation was initiated by the addition of a arachidonic acid (Sigma) or ADP (Sigma).
10 mM solutions of each compound (TABLE 6) were prepared in 1 mL of normal saline solution (containing 4% BSA) before use. An aliquot (400 μL) of platelet-rich plasma was pipetted into a stirred aggregometer tube at 37° C. and 30 μL of test sample added simultaneously. This mixture was preincubated for varying period (3 to 45 minutes), then arachidonic acid (AA) was added (final conc.=200 μM) to initiate platelet aggregation. If no aggregation occurred, 20 μM ADP was added to confirm the vitality of the platelets (if the platelets are vital, ADP will induce this AA-test sample-plasma mixture to aggregate). This procedure is necessary to investigate whether the non-aggregation phenomenon is due to drug inhibition or simply due to inviable platelets (unable to respond to AA). The degree of aggregation was measure by calculating the area under the turbidimetric response curve (AUC).
On to “O-acetylsalicylic acid [Compound C2SA, reference compound]”, for which the “Platelet Aggregation (% of control)” value is 0 % of control.
The same measure, in the same setting: the figure for `CCCCCC(=O)Oc1ccc(-c2ccc(F)cc2F)cc1C(=O)O` [Compound C6D, n-hexanoyldiflunisal] is 97.2 ± 0.2 % of control; for `CCCCC(=O)Oc1ccccc1C(=O)O` [Compound C5SA, n-pentanoylsalicylic acid] it is 63.5 ± 1.5 % of control.

Still in this data set, the particulars now being: preincubation 5 minutes; compound 600 µM, 37° C.; arachidonic acid 200 µM.
Consider “O-acetylsalicylic acid [Compound C2SA, reference compound]”, for which the “Platelet Aggregation (% of control)” value was 0 % of control.
Same read-out and setting: the figure for `CCCCCC(=O)Oc1ccc(-c2ccc(F)cc2F)cc1C(=O)O` [Compound C6D, n-hexanoyldiflunisal] is 94.7 ± 0.3 % of control.
On the same count and under the same terms, under `CCCCC(=O)Oc1ccccc1C(=O)O` [Compound C5SA, n-pentanoylsalicylic acid] stands 41.3 ± 1.1 % of control.

The data set is the same for the next values; noted with them: preincubation 8 minutes; compound 600 µM, 37° C.; arachidonic acid 200 µM.
In the case of “O-acetylsalicylic acid [Compound C2SA, reference compound]”, the “Platelet Aggregation (% of control)” value is reported as 0 % of control.
The same measure, in the same setting: under `CCCCCC(=O)Oc1ccc(-c2ccc(F)cc2F)cc1C(=O)O` [Compound C6D, n-hexanoyldiflunisal] stands 93.3 ± 0.2 % of control; under `CCCCC(=O)Oc1ccccc1C(=O)O` [Compound C5SA, n-pentanoylsalicylic acid], 0 % of control.

Staying with this data set, now noted: preincubation 10 minutes; compound 600 µM, 37° C.; arachidonic acid 200 µM.
For “O-acetylsalicylic acid [Compound C2SA, reference compound]”, the “Platelet Aggregation (% of control)” value was 0 % of control.
For the compound `CCCCCC(=O)Oc1ccc(-c2ccc(F)cc2F)cc1C(=O)O` [Compound C6D, n-hexanoyldiflunisal], the “Platelet Aggregation (% of control)” value is listed as 90.1 ± 2.1 % of control.
Still for that read-out and setting: under `CCCCC(=O)Oc1ccccc1C(=O)O` [Compound C5SA, n-pentanoylsalicylic acid] stands 0 % of control.

Staying with this data set, now noted: preincubation 12 minutes; compound 600 µM, 37° C.; arachidonic acid 200 µM.
On to “O-acetylsalicylic acid [Compound C2SA, reference compound]”, for which the “Platelet Aggregation (% of control)” value is recorded as 0 % of control.
`CCCCCC(=O)Oc1ccc(-c2ccc(F)cc2F)cc1C(=O)O` [Compound C6D, n-hexanoyldiflunisal]: the “Platelet Aggregation (% of control)” value is recorded as 89.3 ± 0.1 % of control.
Turning to `CCCCC(=O)Oc1ccccc1C(=O)O` [Compound C5SA, n-pentanoylsalicylic acid], the “Platelet Aggregation (% of control)” value is 0 % of control.

The data set is the same for the next values; noted with them: preincubation 15 minutes; compound 600 µM, 37° C.; arachidonic acid 200 µM.
“O-acetylsalicylic acid [Compound C2SA, reference compound]”: the “Platelet Aggregation (% of control)” value is on record as 0 % of control.
Still for that read-out and setting: under `CCCCCC(=O)Oc1ccc(-c2ccc(F)cc2F)cc1C(=O)O` [Compound C6D, n-hexanoyldiflunisal] stands 71.7 ± 1.9 % of control.
As for `CCCCC(=O)Oc1ccccc1C(=O)O` [Compound C5SA, n-pentanoylsalicylic acid], the “Platelet Aggregation (% of control)” value was 0 % of control.

Still in this data set, the particulars now being: preincubation 20 minutes; compound 600 µM, 37° C.; arachidonic acid 200 µM.
With “O-acetylsalicylic acid [Compound C2SA, reference compound]”, the “Platelet Aggregation (% of control)” value is on record as 0 % of control.
Turning to `CCCCCC(=O)Oc1ccc(-c2ccc(F)cc2F)cc1C(=O)O` [Compound C6D, n-hexanoyldiflunisal], the “Platelet Aggregation (% of control)” value was 45.6 ± 0.5 % of control.
On the same count and under the same terms, the figure for `CCCCC(=O)Oc1ccccc1C(=O)O` [Compound C5SA, n-pentanoylsalicylic acid] is 0 % of control.

The same data set, now with this note: preincubation 25 minutes; compound 600 µM, 37° C.; arachidonic acid 200 µM.
With “O-acetylsalicylic acid [Compound C2SA, reference compound]”, the “Platelet Aggregation (% of control)” value was 0 % of control.
For the compound `CCCCCC(=O)Oc1ccc(-c2ccc(F)cc2F)cc1C(=O)O` [Compound C6D, n-hexanoyldiflunisal], the “Platelet Aggregation (% of control)” value was 0 % of control.
Same read-out and setting: the figure for `CCCCC(=O)Oc1ccccc1C(=O)O` [Compound C5SA, n-pentanoylsalicylic acid] is 0 % of control.

Still in this data set, the particulars now being: preincubation 45 minutes; compound 600 µM, 37° C.; arachidonic acid 200 µM.
In the case of “O-acetylsalicylic acid [Compound C2SA, reference compound]”, the “Platelet Aggregation (% of control)” value was 0 % of control.
For the compound `CCCCCC(=O)Oc1ccc(-c2ccc(F)cc2F)cc1C(=O)O` [Compound C6D, n-hexanoyldiflunisal], the “Platelet Aggregation (% of control)” value is listed as 0 % of control.
As to `CCCCC(=O)Oc1ccccc1C(=O)O` [Compound C5SA, n-pentanoylsalicylic acid], the “Platelet Aggregation (% of control)” value was 0 % of control.

A further data set relates to OH. generated from Fenton's reaction. Briefly: Luminol-dependent chemiluminescence induced by Fenton's reagent. Type of data set: biochemical. Set-up: unit of the concentration uncertain. The following applies: 0.5 (unit uncertain) compound; F: CL induced by Fenton's reagent; n=3; U = undetectable. As to the method:
CL was measured with a luminometer (Model 1250; LKB Wallac, Finland) and recorded in millivolts (Cheung et al., 1984, supra).
Fenton's reagent (FeSO4 and H2O2) was used as a standard reaction mixture for the generation of OH. (Lai and Piette, 1979, Tetrahedron Lett. 775-778):
Fe^+++H2O2→Fe^++++OH.+OH (1)
The initial reaction mixture consisted of 20 μL of 3.8 mM FeSO4.7H2O, 20 μL of 5 mg/mL luminol (Sigma), and 2 mL of 1 mM phosphate buffer in a 3 mL polystyrene cuvette. Twenty microlitres of 320 mM H2O2 was added to initiate the Fenton's reaction.
A known concentration of the ethanolic (≲1%) aspirin analogue or diflunisal ester's stock solution was added to the 1 mM phosphate buffer to prepare solutions with a final concentration of 50 μM, 250 μM or 500 μM. Twenty microlitres of these test samples was added onto the cuvette which contained the initial reaction mixture. H2O2 was added to induce CL reaction. The luminol-dependent CL response was recorded in mV by a potentiometric recorder.
as §1
On to `CCCCCC(=O)Oc1ccc(-c2ccc(F)cc2F)cc1C(=O)O` [Compound C6D, n-hexanoyldiflunisal], for which the “CL inhibition (%)” value is 20.5 ± 4.6%.
Still for that read-out and setting: under `CCCCC(=O)Oc1ccccc1C(=O)O` [Compound C5SA, n-pentanoylsalicylic acid] stands 0.4 ± 0.1^e %.

The data set is the same for the next values; noted with them: 2.5 (unit uncertain) compound; F: CL induced by Fenton's reagent; n=3.
On to “O-acetylsalicylic acid [Compound C2SA, reference compound]”, for which the “CL inhibition (%)” value is on record as 43.3 ± 5.0%.
On the same count and under the same terms, under `CCCCCC(=O)Oc1ccc(-c2ccc(F)cc2F)cc1C(=O)O` [Compound C6D, n-hexanoyldiflunisal] stands 54.8 ± 2.4%; under `CCCCC(=O)Oc1ccccc1C(=O)O` [Compound C5SA, n-pentanoylsalicylic acid], 45.9 ± 5.0%.

Still in this data set, the particulars now being: 5 (unit uncertain) compound; F: CL induced by Fenton's reagent; n=3.
As for “O-acetylsalicylic acid [Compound C2SA, reference compound]”, the “CL inhibition (%)” value worked out at 97.6 ± 0.5%.
On the same count and under the same terms, the figure for `CCCCCC(=O)Oc1ccc(-c2ccc(F)cc2F)cc1C(=O)O` [Compound C6D, n-hexanoyldiflunisal] is 92.7 ± 3.1%.
On the same count and under the same terms, under `CCCCC(=O)Oc1ccccc1C(=O)O` [Compound C5SA, n-pentanoylsalicylic acid] stands 95.6 ± 0.4%.
